Square brackets hold non-standard residues; d marks the D form. Primed or numbered codes have the meaning given here. Ends that are not written are not given here. Lys(N3) = [N-]=[N+]=NCCCC[C@H](N)C(=O)O; PEG4′ = not defined here
Columns and labels:
[1] = test system: aneurysm-carrying artery and abdominal aorta; experiment: Flow-diverter stents (CFD) implanted in rabbit aneurysm-carrying artery and abdominal aorta; SEM and histopathology (Example 3); assay type: in vivo, New Zealand White rabbits
Description: Flow-diverter stents (CFD) are braided meshes made of nitinol, from Sinomed. They are coated by one of the following coatings: • 1. SP1072 peptide according to the invention, or • 2. Hydrophilic polymer eG NTMA (obtained from the electrografting of N-[Tris (hydroxymethyl) Methyl]Acrylamide).
• 1) Transfer each stent in a 5 mL polypropylene round bottom tube (Bd Falcon Ref 352063). Insure the stent drops at the bottom of the tube. • 2) Add 4.5 mL of a 2 mg/mL PDA solution per tube. Homogenize each tube on a rotary wheel (approx. 20 rpm) overnight (18+/−2 h) at room temperature and protect from light. […] The stent color should change from silver to brown/black. After the incubation period the solution will become black with small PDA aggregates • 3) Transfer each stent in a new tube and rinse 3-times with demineralized water. homogenize on the rotary wheel 5 min at each rinse. • 4) Leave the last rinse and sonicate the tube for at least 30 s to discard any remaining PDA chunk. • 5) Transfer each stent in a 2 mL—Eppendorf tube containing 1.8 mL of DBCO (300 μM) per tube. Homogenize each tube on a rotary wheel (approx. 20 rpm) overnight at room temperature and protect from light. • 6) Transfer each stent in a new tube and rinse 3-times with demineralized water. Homogenize on the rotary well 5 min at each rinse. • 7) Transfer each stent in a 2 mL—Eppendorf tube containing 1.8 mL of CD31 peptide (50 μg/mL) per tube. Homogenize each tube on a rotary wheel (approx. 20 rpm) for 2 hours at room temperature and protect from light. • 8) Transfer each stent in a new tube and rinse 3-times with demineralized water. Homogenize on the rotary well 5 min at each rinse. • 9) Soak each stent in absolute Ethanol for 5 seconds before letting them dry.
Comparative hydrophilic polymer eG NTMA-coated flow diverter stents were obtained via the following protocol: • (1) Cleaning pretreatment: The stent frames were sonicated in acetone, ethanol, and water for injection for 10 min, respectively. • (2) Electro-grafting solution preparation: N-[tris(hydroxymethyl)methyl]acrylamide, concentration 0.30 M; NaNO3, concentration 0.05 M; 4-nitrophenyl tetrafluoroborate diazonium salt, 0.005 M; the remaining amount is DMSO solvent. • (3) Electro-grafting process: the pretreated stents were used as the working electrode, and a platinum foil was used as the counter electrode, which was submerged in the electro-grafting solution, and a linear sweep voltage between −0.1 and −3.0 V and back was applied between the two electrodes with a voltage scan rate of 0.05 V/s for 10 cycles. • (4) Coating smoothing and drying: the electrografted scaffold was smoothed in acetone (2 L) with nitrogen bubbling (rate 0.5-10 L/min) for 10 min and placed in a vacuum drying oven at 40° C. for 2 h.
A total of 8 healthy New Zealand White rabbits (including 2 spare animals), male and female, weighing about 3 kg, were included in this study. A total of 3 observation time points of 7 days, 30 days and 60 days postoperatively were set. The experiment was divided into two steps: 1) aneurysm animal modeling; 2) implantation of a dense mesh stent in the aneurysm-carrying artery and abdominal aorta for each animal. The stent implantation in the aneurysm-carrying artery was to be used to examine the safety and effectiveness of the stent in treating aneurysms, and the stent implantation in the abdominal aorta, covering a pair of lumbar arteries, was to be used to examine the safety of the tested stent.
Step 1) (aneurysm animal modeling) was performed as follows: • (a) The rabbit is placed supine on the operating table and the neck is shaved. […] Every 20 minutes, saline drips were injected into the rabbit's cervical vessels and vagus nerve to keep them moistened. […] Continue to use antibiotics for 3-5 days after surgery. […]

[2] = test system: aneurysm-carrying artery and abdominal aorta; experiment: Flow-diverter stents (CFD) in rabbits without aspirin or clopidogrel after implantation (Example 4); assay type: in vivo, New Zealand White rabbits; conditions: day 7, n=3, no aspirin nor clopidogrel after implantation; preliminary
From the text: The same materials and protocol as in Example 3 were used, except that: • Only 3 animals were used for each condition, and • No aspirin nor clopidogrel was given to animals after the implantation.

[3] = test system: Primary Human Aortic Endothelial Cells (HAEC); experiment: Human aortic endothelial cells grown 48 h on bare or peptide-coated nitinol disks; F-actin / CD31 staining and image analysis; assay type: cell-based
Description: Nitinol disks are left untouched (bare metal) or coated with a domain 1, domain 2 or domain 1 and 2 CD31 analog peptide. The tested peptide is grafted to the nitinol disk following a polydopamine, DBCO-PEG4-amine and azide CD31 derivative peptide using a sequential dip-coating layering procedure. After this step, all the disks are incubated with Human aortic endothelial cells for 48 h. Disks are then rinsed and the cells are fixed in a formalin solution before staining. The staining is fulfilled using phalloidin coupled to AlexaFluor®488 dye (green fluorescence for Actin), DAPI is used for DNA staining and a domain 1 CD31 antibody coupled to APC is used for external Domain 1 staining. The cell adhesion and Actin/CD31 expression was evaluated by image analysis of the surface after staining.
In particular, as per FIG. 2 the bare or coated nitinol disks were placed at the bottom of culture wells. Primary Human Aortic Endothelial Cells (HAEC) were allowed to grow on the disks for a period of 48 h. The disks were thereafter rinsed with phosphate buffered saline, fixed in formalin, and processed for fluorescence microscopy. Disk-adherent cells were immersed in a solution comprising Hoechst 33342 (1 μg/ml, to stain the nuclei), phalloidin coupled to AlexaFluor®488 dye (0.5 μM, to stain F-actin fibers) and a monoclonal antibody directed against CD31 domain 1, coupled to allophycocyanin (to detect the presence and localization of intact CD31 at the cell surface) for 1 hour at 37° C., washed and mounted face down on glass bottom imaging chambers for imaging with an inverted fluorescence microscope.
Surface type is indicated on the Y axis, data are expressed as average±SD (N=6/surface type). Each dot corresponds to a specific surface modification. The F-actin expression relates the cellular stress of the cell in presence of the exogenous material.
In FIG. 4 the surface type is indicated on the Y axis. Each dot corresponds to a specific surface modification. Data are expressed as “Integrated Density” average±SD (N=6/surface type). CD31 expression relates the capacity of endothelial cells to adopt a physiologic phenotype while growing on a given substrate. An important variability is observed in terms of CD31 expression by HAEC according to the surface modification of the nitinol disks.
The “mirror” bars of FIG. 5 report the average Integrated Density of F-actin (left) and of CD31 (right) staining for each of the indicated (Y axis) type of peptide coated onto the disk surface and bare disks. Data are sorted (from the top to the bottom) according to the increase in the cellular stress (actin expression) of each coating. As shown on the figure, the degree of cellular stress (as detected by a high actin expression) and impaired endothelial phenotype (documented by a low CD31 expression) is evident on HAEC grown onto bare metal disks.
The data shown in FIG. 6 are expressed as the ratio between CD31 and F-actin expression.
The effect of different peptides, belonging to the different groups, were tested in batches following the same protocol as in FIG. 6. Different peptides from each group were tested in batches and the effect of individual peptides was repeatedly assessed in separate experiments. Data from all experiments were obtained by computer-assisted analysis of images of the disk side covered with endothelial cells, captured in the blue, green and red channel of an inverted fluorescence microscope. The functional score of the peptides belonging to the different groups was calculated by multiplying the number of cells (as detected by the number of blue, Dapi+ nuclei) for the integrated density of CD31 expression (red signal provided by the binding of a mouse anti-human CD31 monoclonal antibody, clone 9G11, conjugated allophycocyanin) and their product being divided for the integrated density of the F-actin polymerization (Phalloidin coupled to a green fluorochrome). […]

[4] = day 7, aneurysm-carrying artery
[5] = day 60, aneurysm-carrying artery

Substance: YKSTVIVNNKEKTTAE-PEG4-K(N3)-CONH2 (YKSTVIVNNKEKTTAE[PEG4′][Lys(N3)]-NH2) [SP1072]
- endothelialization of inner surface of flow-diverter stents (conclusion) ([1]; Example 3 overall): promotes early endothelialization on the inner surface of the flow-diverter stents
- endothelialization of the device at sites other than the aneurysm entry (conclusion) ([1]; Example 3 overall): endothelialization of the device is fast and complete without apparent inflammation nor neointima
- neo arterial wall at the entry of the aneurysm sac (conclusion) ([1]; Example 3 overall): promotes the growth of an organized, blood-impermeable neo arterial wall at the entry of the aneurysm sac
- neo-wall covering the aneurysmal neck (histopathology) [1, 4]: compact and rich in extracellular matrix (dark grey) and void of inflammation (no black nuclei) or thrombosis
- organization of thrombus in the aneurysmal sac (histopathology) [1, 4]: organized
- organization of thrombus in the aneurysmal sac (histopathology) [1, 5]: very well organized
- reaction of arterial wall in contact with stent struts (histopathology) [1, 5]: absence of inflammation/thrombosis of the arterial wall that is already in contact with the stent struts
- survival and thrombus after implantation [2]: still alive with no thrombus
- CD31/Actin score ([3]; Example 2, FIG. 25, repeated experiments (SP547, SP548 only one measure)): significantly higher than those obtained by the bare metal disks or by disks coated with PDA alone
- CD31 expression (physiologic endothelial phenotype), Integrated Density ([3]; HAEC 48 h on coated nitinol disks, compared to other modified disks and bare controls, FIGS. 2, 4, 5): evident positive effect in terms of CD31 expression
- ratio between CD31 and F-actin expression ([3]; compared to bare metal and disks coated with PDA only, FIG. 6): higher CD31/actin ratio

— US20250381324A1, “CD31 MIMETIC COATING FOR ENDOVASCULAR STENT” (INSERM (Institut National de la Santé et de la Recherche …, priority 2021, published 2025)
